The values that follow come from US20160362393A1, “EN[…] AGENT” (THE UNIVERSITY OF TOKYO, priority 2014, published 2016).

The subject of the test is 1st-stage larvae of Haemonchus contortus. In words: Test for effect on motion of larvae of Haemonchus nematode (Haemonchus contortus). Format: cell-based. Conditions: 20 larvae per well, 27° C./95% RH for 4 days, corrected for DMSO negative control, duplicate. On the procedure: Test for Effect on Motion of Larvae of Haemonchus Nematode (Haemonchus contortus)
The compound of the present invention was prepared as solutions in 100% DMSO at the final concentrations of 50 ppm, 5 ppm, 0.5 ppm, 0.05 ppm and 0.005 ppm. DMSO stands for dimethyl sulfoxide.
A larval suspension containing 1st-stage larvae of Haemonchus contortus harvested by the Baermann technique (for example, see K. Nakazono et al., “Inclination of Baermann funnel wall and efficiency of nematode extraction” Proc. Assoc. Pl. Prot. Kyushu 33; 126-130 (1987) was placed at a density of 20 larvae per well in a test place, and 0.5 μL/well of the test solution containing the compound of the present invention diluted to a predetermined concentration was added to the test plate. The plate was kept, under the conditions of 27° C./95% RH for 4 days. In the test, ivermectin was used for the positive control and DMSO was used for the negative control.
The motor ability of the larvae was examined with an automatic analyzer equipped with an LCD camera. The inhibitory effect on the motion of the larvae in each treatment plot was corrected based on the inhibitory effect in the plot treated with DMSO only for the negative control. The EC50 value was calculated from the data on the corrected inhibitory effect on the motion of the larvae, and graded according to the criteria shown below.
The test was conducted in duplicate per plot.

Turning to `O=C(NCCc1ccc(Oc2nc3ccccc3s2)cc1Cl)c1nccnc1C(F)(F)F` [Compound 1-17], the “EC50 value, inhibitory effect on the motion of the larvae (graded)” value (shortened to “EC50 value, inhibitory effect”) is recorded as “C or higher”.
Take `Cc1cnc(Cl)nc1Oc1ccc(CCNC(=O)c2nccnc2C(F)(F)F)c(Cl)c1` [Compound 1-13]: the “EC50 value, inhibitory effect” value was “C or higher”.
Next, `CC(C)(CNC(=O)c1nccnc1C(F)(F)F)c1ccc(Oc2ncc(Cl)cc2Cl)cc1Cl` [Compound 1-27]: “C or higher”; `O=C(NCCc1ccc(Oc2ncc(Cl)cc2Cl)cc1Cl)c1nccnc1C(F)(F)F` [Compound 1-3]: “C or higher”; `O=C(NCCc1ccc(Oc2ncc(Br)cc2Cl)cc1Cl)c1nccnc1C(F)(F)F` [Compound 1-4]: “C or higher”.
Next, `O=C(NCC1(c2ccc(Oc3ncc(C(F)(F)F)cc3Cl)cc2Cl)CC1)c1nccnc1C(F)(F)F` [Compound 1-28]: “C or higher”.
Next, `CC(CNC(=O)c1nccnc1C(F)(F)F)c1ccc(Oc2ncc(C(F)(F)F)cc2Cl)cc1Cl` (racemic) [Compound 1-22]: “C or higher”; `O=C(NCCc1ccc(-c2cccnc2)cc1Cl)c1nccnc1C(F)(F)F` [Compound 1-37]: “C or higher”.
Turning to `O=C(NCCc1ccc(Oc2nc3ccccc3o2)cc1Cl)c1nccnc1C(F)(F)F` [Compound 1-19], the “EC50 value, inhibitory effect” value is on record as “C or higher”.
The result for `O=C(NCCc1ccc(Oc2cc(Cl)nc(Cl)n2)cc1Cl)c1nccnc1C(F)(F)F` [Compound 1-11] reads “C or higher”; that for `O=C(NCCc1ccc(-c2cccc(C(F)(F)F)c2)cc1Cl)c1nccnc1C(F)(F)F` [Compound 1-32], “C or higher”.
Next, `COC(CNC(=O)c1nccnc1C(F)(F)F)c1ccc(Oc2ncc(C(F)(F)F)cc2Cl)cc1Cl` (racemic) [Compound 1-38]: “C or higher”; `O=C(NCCc1ccc(Oc2cnccn2)cc1Cl)c1nccnc1C(F)(F)F` [Compound 1-7]: “C or higher”.
The result for `COc1cc(OC)nc(Oc2ccc(CCNC(=O)c3nccnc3C(F)(F)F)c(Cl)c2)n1` [Compound 1-8] reads “C or higher”.
As for `O=C(NCC1(c2ccc(Oc3ncc(Cl)cc3Cl)cc2Cl)CC1)c1nccnc1C(F)(F)F` [Compound 1-30], the “EC50 value, inhibitory effect” value was “C or higher”.
Next, `Cc1cc(Oc2ccc(CCNC(=O)c3nccnc3C(F)(F)F)c(Cl)c2)nc(Cl)n1` [Compound 1-12]: “C or higher”; `O=C(NCCc1ccc(-c2ccccc2)cc1Cl)c1nccnc1C(F)(F)F` [Compound 1-35]: “C or higher”.
Take `O=C(NCCc1ccc(Oc2ccc(C(F)(F)F)cn2)cc1Cl)c1nccnc1C(F)(F)F` [Compound 1-2]: the “EC50 value, inhibitory effect” value is listed as “C or higher”.
The result for `O=C(NCCc1ccc(-c2cc(F)cc(F)c2)cc1Cl)c1nccnc1C(F)(F)F` [Compound 1-33] reads “C or higher”; that for `O=C(NCCc1ccc(Oc2nc3ccc(Cl)cc3s2)cc1Cl)c1nccnc1C(F)(F)F` [Compound 1-18], “C or higher”; that for `O=C(NCCc1ccc(-c2ccc(C(F)(F)F)cc2)cc1Cl)c1nccnc1C(F)(F)F` [Compound 1-31], “C or higher”.
Next, `O=C(NCC1(c2ccc(Oc3ccc(C(F)(F)F)cn3)cc2Cl)CC1)c1nccnc1C(F)(F)F` [Compound 1-29]: “C or higher”; `O=C(NCCc1ccc(Oc2ccnc(Cl)n2)cc1Cl)c1nccnc1C(F)(F)F` [Compound 1-10]: “C or higher”; `O=C(NCCc1ccc(Oc2cnc3ccccc3n2)cc1Cl)c1nccnc1C(F)(F)F` [Compound 1-16]: “C or higher”.
In the case of `COC(CNC(=O)c1nccnc1C(F)(F)F)c1ccc(Oc2ccc(C(F)(F)F)cn2)cc1Cl` (racemic) [Compound 1-39], the “EC50 value, inhibitory effect” value was “C or higher”.
The result for `O=C(NCCc1ccc(Oc2ccc3ccccc3n2)cc1Cl)c1nccnc1C(F)(F)F` [Compound 1-15] reads “C or higher”; that for `COC(CNC(=O)c1nccnc1C(F)(F)F)c1ccc(Oc2cccnc2)cc1Cl` (racemic) [Compound 1-45], “C or higher”; that for `CC(C)(CNC(=O)c1nccnc1C(F)(F)F)c1ccc(Oc2ncc(C(F)(F)F)cc2Cl)cc1Cl` [Compound 1-25], “C or higher”.
Next, `O=C(NCCc1ccc(Oc2ccc(C(F)(F)F)cc2)cc1Cl)c1nccnc1C(F)(F)F` [Compound 1-21]: “C or higher”.
As for `COC(CNC(=O)c1nccnc1C(F)(F)F)c1ccc(Oc2nc3ccccc3s2)cc1Cl` (racemic) [Compound 1-41], the “EC50 value, inhibitory effect” value is recorded as “C or higher”.
Next, `CC(C)(CNC(=O)c1nccnc1C(F)(F)F)c1ccc(Oc2ccc(C(F)(F)F)cn2)cc1Cl` [Compound 1-26]: “C or higher”.
The result for `CC(CNC(=O)c1nccnc1C(F)(F)F)c1ccc(Oc2ncc(Cl)cc2Cl)cc1Cl` (racemic) [Compound 1-24] reads “C or higher”; that for `O=C(NCCc1ccc(-c2ccncc2)cc1Cl)c1nccnc1C(F)(F)F` [Compound 1-36], “C or higher”; that for `CC(CNC(=O)c1nccnc1C(F)(F)F)c1ccc(Oc2ccc(C(F)(F)F)cn2)cc1Cl` (racemic) [Compound 1-23], “C or higher”.
For `COC(CNC(=O)c1nccnc1C(F)(F)F)c1ccc(Oc2ncc(Cl)cc2Cl)cc1Cl` (racemic) [Compound 1-40], the “EC50 value, inhibitory effect” value is “C or higher”.
